Source: US6660246B1, “Ligands and metal complexes thereof” (Bracco International, BV, priority 1994, dated 2003)
Counter-ions that a name gives are not always drawn.

Row | Compound | melting point [°C]
1 | CN/N=C(\C)C(C)(C)NCCCNC(C)(C)/C(C)=N/O (as salt: hydrochloride) [Example 2, 3,3,9,9-Tetramethyl-4,8-diazaundecane-2,10-dione 2-(2-Methylhydrazone) 10-Oxime] | 175 to 177
2 | C/C(=N\O)C(C)(C)NCCCNC(C)(C)/C(C)=N/NC(=O)c1ccccc1 (as salt: trifluoroacetate) [Example 4, 3,3,9,9-Tetramethyl-4,8-diazaundecane-2,10-dione 2-(2-Benzoylhydrazone) 10-Oxime] | 95 to 96
3 | C/C(=N\N)C(C)(C)NCCCNC(C)(C)/C(C)=N/O [Example 1, 3,3,9,9-Tetramethyl-4,8-diazaundecane-2,10-dione 2-Hydrazone 10-Oxime] | 125 to 126
4 | C/C(=N\O)C(C)(C)NCCCNC(C)(C)/C(C)=N/Nc1ccccc1 [Example 3, 3,3,9,9-Tetramethyl-4,8-diazaundecane-2,10-dione 2-(2-Phenyl-hydrazone) 10-Oxime] | 145 to 146
5 | C/C(=N\N)C(C)(C)NCCCNC(C)(C)/C(C)=N/N [Example 5, 3,3,9,9-Tetramethyl-4,8-diazaundecane-2,10-dione Bishydrazone] | 95 to 96
6 | C/C(=N\O)C(C)(C)NCCNC(C)(C)/C(C)=N/Nc1ccccc1 [Example 6, 3,3,8,8-Tetramethyl-4,8-diazadecane-2,9-dione 2-(2-Phenylhydrazone) 9-Oxime] | 95 to 97
